How the values were obtained:
HMG CoA-reductase enzyme = target: T1, HMG CoA-reductase enzyme (Homo sapiens, UniProt P04035); assay: HMG-CoA reductase activity in treated human liver cells (HUCPI), NADPH oxidation; assay type: cell-based; conditions: administered once in the 24-hour period, Figure 4
T1 construct: First-line human liver cells (HUCPI) were cultured and treated with some compositions; endogenous in cells; host or cells: HUCPI first-line human liver cells
T1 sequence (P04035 1-888): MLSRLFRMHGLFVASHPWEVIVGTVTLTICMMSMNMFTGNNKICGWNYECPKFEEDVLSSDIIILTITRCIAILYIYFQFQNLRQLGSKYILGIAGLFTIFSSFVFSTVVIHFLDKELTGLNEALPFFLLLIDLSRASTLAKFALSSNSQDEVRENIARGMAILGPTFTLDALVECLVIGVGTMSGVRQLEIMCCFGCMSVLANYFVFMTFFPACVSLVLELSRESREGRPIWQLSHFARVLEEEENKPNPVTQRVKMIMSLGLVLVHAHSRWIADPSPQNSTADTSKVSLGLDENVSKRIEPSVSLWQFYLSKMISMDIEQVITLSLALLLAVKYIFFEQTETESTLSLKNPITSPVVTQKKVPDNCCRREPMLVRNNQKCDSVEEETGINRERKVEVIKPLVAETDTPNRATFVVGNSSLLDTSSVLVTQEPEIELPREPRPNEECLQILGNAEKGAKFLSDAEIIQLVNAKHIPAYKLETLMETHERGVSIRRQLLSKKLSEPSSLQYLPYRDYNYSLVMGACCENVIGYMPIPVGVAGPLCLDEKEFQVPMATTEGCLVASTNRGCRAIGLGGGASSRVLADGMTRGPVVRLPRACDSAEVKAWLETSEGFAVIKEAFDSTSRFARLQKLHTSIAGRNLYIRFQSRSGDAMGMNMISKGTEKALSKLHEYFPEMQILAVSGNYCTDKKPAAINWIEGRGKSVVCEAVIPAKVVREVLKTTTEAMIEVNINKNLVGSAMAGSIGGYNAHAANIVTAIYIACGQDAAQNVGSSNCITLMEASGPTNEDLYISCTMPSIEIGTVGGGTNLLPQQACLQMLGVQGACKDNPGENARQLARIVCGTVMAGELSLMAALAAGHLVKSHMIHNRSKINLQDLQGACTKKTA
Experimental: First-line human liver cells (HUCPI) were cultured and treated with some compositions, and with atorvastatin as a control, to evaluate the inhibition capacity of the HMG CoA-reductase enzyme. The enzymatic activity of HMG-CoA reductase was evaluated by measuring the dependent oxidation of NAPDH. For each sample, the measurements were carried out at least in triplicate, and the results were reported as the average of the single values.
The HUCPI cells were treated with the composition of Example 1 and with solutions of single extracts of Policosanols, and a mixture containing Policosanols, Oleuropein and Ipomea batata, in amounts equivalent to the ingredients of the composition of Example 1. After treatment, the cells were lysed and the catalytic fragment of the protein HMGR was cloned, overexpressed, and purified.

PCSK9 = PCSK9 inhibition in HepG2 liver cells (mRNA levels by qRT-PCR); assay type: cell-based, human; conditions: 40 µM berberine or 40 µM equivalent berberine, compared to the control
Experimental: Immortalized HepG2 human hepatocellular carcinoma cells were cultured and then treated with berberine extract, and the composition of Example 1. After treatment, the cells were lysed and the mRNA (messenger RNA) levels for PCSK9 expression were evaluated by qRT-PCR using human-specific PCR primers. For each sample, the measurements were carried out at least in triplicate and the results were reported as the average of the single values.
The efficacy of the invention composition was tested against HepG2 immortalized human hepatocarcinoma cells. […] The inhibition of the messenger RNA (mRNA) encoding the translation of the protein PCSK9 plays a key role in the mechanisms of action aimed at maximizing the hepatic reuptake of LDL cholesterol. […]
As it is possible to see in Figure 1, the mRNA levels related to PCSK9 expression of HepG2 cells are influenced by treatment with 40 µM of berberine, showing a reduction of about 25% after 6 hours and of 40% after 24 hours, compared to the control. […] In fact, a reduction of more than 40% was recorded after 6 hours from the treatment, while at 24 hours inhibition levels equal to about 60% were detected, due to a synergistic effect also of the other components present in the mixture, capable of influencing the PCSK9-LDLR metabolic pathway.

| SMILES | activity of HMRG (HMG CoA-reductase enzyme) | reduction of mRNA levels related to PCSK9 expression (PCSK9; after 6 hours) | reduction of mRNA levels related to PCSK9 expression (PCSK9; after 24 hours) [%] |
| --- | --- | --- | --- |
| CC(C)c1c(C(=O)Nc2ccccc2)c(-c2ccccc2)c(-c2ccc(F)cc2)n1CC[C@@H](O)C[C@@H](O)CC(=O)O [atorvastatin] | significantly reduced the activity of HMRG |  |  |
| COc1ccc2cc3[n+](cc2c1OC)CCc1cc2c(cc1-3)OCO2 [berberine] |  | about 25% | 40 |

Reference: patent EP4260865B1, “COMPOSITION COMPRISING PLANT EXTRACTS FOR TREATING HYPERCHOLESTEROLEMIA” (Anvest Group S.r.l., priority 2022, dated 2023)
